In publication PMC5762309 (Oncotarget, 2017):
Like-named read-outs stand apart in the source and are kept apart here.

Assays:
[1] = tested on: CSF1R transformed BaF3 cells; assay: Anti-proliferation assay, transformed BaF3 cells; assay type: cell-based; details: Mus musculus
Protocol: (§1) Then we used the DiscoverX’s KINOMEScan platform to further examine CHMFL-KIT-031’s kinome-wide selectivity profile. […] Besides the strong binding to V559D, it also bound strongly to KIT wt, L576P and A829P.
Cells were grown in 96-well culture plates (2500/well). The compounds of various concentrations were added into the plates. Cell proliferation was determined after treatment with compounds for 72 hours. Cell viability was measured using the CellTiter–Glo assay (Promega, USA), according to the manufacturer’s instructions, and luminescence was measured in a multi-label reader (Envision, PerkinElmer, USA). Data were normalized to control groups (DMSO) and represented by the mean of three independent measurements with standard error <20%. GI50 values were calculated using Prism 5.0 (GraphPad Software, San Diego, CA).

468 kinases/mutants = assay: KINOMEScan kinome-wide selectivity S score; assay type: binding; details: 1 μM
From the text: as §1

BMPR2 = molecular target: T1, BMPR2 (Homo sapiens, UniProt Q13873); assay: KINOMEScan; assay type: binding; set-up: dose or concentration left out as unconfirmed
T1 construct: purchased DiscoverX KINOMEscan

CDK2 = molecular target: T2, CDK2 (Homo sapiens, UniProt P24941); assay: KINOMEScan; assay type: binding; set-up: dose or concentration left out as unconfirmed
T2 construct: purchased DiscoverX KINOMEscan

CDK3 = molecular target: T3, CDK3 (Homo sapiens, UniProt Q00526); assay: KINOMEScan; assay type: binding; set-up: dose or concentration left out as unconfirmed
T3 construct: purchased DiscoverX KINOMEscan

CSK = molecular target: T4, CSK (Homo sapiens, UniProt P41240); assay: KINOMEScan; assay type: binding; set-up: dose or concentration left out as unconfirmed
T4 construct: purchased DiscoverX KINOMEscan

CSNK1G1 = molecular target: T5, CSNK1G1 (Homo sapiens, UniProt Q9HCP0); assay: KINOMEScan; assay type: binding; set-up: dose or concentration left out as unconfirmed
T5 construct: purchased DiscoverX KINOMEscan

DCAMKL1 = molecular target: T6, DCAMKL1 (Homo sapiens, UniProt O15075); assay: KINOMEScan; assay type: binding; set-up: dose or concentration left out as unconfirmed
T6 construct: purchased DiscoverX KINOMEscan

EGFR(G719S) = molecular target: T7, EGFR(G719S) (Homo sapiens, UniProt P00533, G719S); assay: KINOMEScan; assay type: binding; set-up: dose or concentration left out as unconfirmed
T7 construct: purchased DiscoverX KINOMEscan

[2] = molecular target: T8, EGFR(L747-E749del, A750P) (Homo sapiens, UniProt P00533, A750P/DEL747-749); assay: KINOMEScan; assay type: binding; set-up: dose or concentration left out as unconfirmed
T8 construct: purchased DiscoverX KINOMEscan

[3] = molecular target: T9, EGFR(L747-S752del, P753S) (Homo sapiens, UniProt P00533, DEL747-752/P753S); assay: KINOMEScan; assay type: binding; set-up: dose or concentration left out as unconfirmed
T9 construct: purchased DiscoverX KINOMEscan

EGFR(L858R) = molecular target: T10, EGFR(L858R) (Homo sapiens, UniProt P00533, L858R); assay: KINOMEScan; assay type: binding; set-up: dose or concentration left out as unconfirmed
T10 construct: purchased DiscoverX KINOMEscan

EGFR(L858R,T790M) = molecular target: T11, EGFR(L858R,T790M) (Homo sapiens, UniProt P00533, L858R/T790M); assay: KINOMEScan; assay type: binding
T11 construct: purchased DiscoverX KINOMEscan

EGFR(S752-I759del) = molecular target: T12, EGFR(S752-I759del) (Homo sapiens, UniProt P00533, DEL752-759); assay: KINOMEScan; assay type: binding; set-up: dose or concentration left out as unconfirmed
T12 construct: purchased DiscoverX KINOMEscan
T12 sequence (P00533 with tags, fused parts or gaps DEL752-759 limits assumed): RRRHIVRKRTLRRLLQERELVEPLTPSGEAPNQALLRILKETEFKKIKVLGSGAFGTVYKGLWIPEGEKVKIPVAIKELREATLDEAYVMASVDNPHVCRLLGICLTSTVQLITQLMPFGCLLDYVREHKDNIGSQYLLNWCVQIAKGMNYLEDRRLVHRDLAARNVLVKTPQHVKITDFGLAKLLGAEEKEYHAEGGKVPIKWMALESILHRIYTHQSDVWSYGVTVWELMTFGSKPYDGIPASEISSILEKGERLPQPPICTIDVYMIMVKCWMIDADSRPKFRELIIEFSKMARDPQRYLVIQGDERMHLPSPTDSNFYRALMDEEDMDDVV

EPHB2 = molecular target: T13, EPHB2 (Homo sapiens, UniProt P29323); assay: KINOMEScan; assay type: binding; set-up: dose or concentration left out as unconfirmed
T13 construct: purchased DiscoverX KINOMEscan

FLT3(ITD,F691L) = assay: KINOMEScan; assay type: binding; set-up: dose or concentration left out as unconfirmed
[4] = molecular target: T14, JAK1(JH1domain-catalytic) (Homo sapiens, UniProt P23458); assay: KINOMEScan; assay type: binding; set-up: dose or concentration left out as unconfirmed
T14 construct: JAK1(JH1domain-catalytic); purchased DiscoverX KINOMEscan
T14 sequence (P23458 875-1154 limits assumed): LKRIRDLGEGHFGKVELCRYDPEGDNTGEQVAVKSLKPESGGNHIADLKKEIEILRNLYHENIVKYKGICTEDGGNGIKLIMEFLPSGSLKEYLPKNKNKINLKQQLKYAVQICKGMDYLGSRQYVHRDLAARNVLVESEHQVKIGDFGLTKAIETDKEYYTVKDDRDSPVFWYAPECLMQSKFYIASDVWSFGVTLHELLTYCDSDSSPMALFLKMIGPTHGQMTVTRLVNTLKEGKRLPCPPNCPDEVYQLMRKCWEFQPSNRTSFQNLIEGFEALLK

[5] = molecular target: T15, JAK2(JH1domain-catalytic) (Homo sapiens, UniProt O60674); assay: KINOMEScan; assay type: binding; set-up: dose or concentration left out as unconfirmed
T15 construct: JAK2(JH1domain-catalytic); purchased DiscoverX KINOMEscan

LATS2 = molecular target: T16, LATS2 (Homo sapiens, UniProt Q9NRM7); assay: KINOMEScan; assay type: binding; set-up: dose or concentration left out as unconfirmed
T16 construct: purchased DiscoverX KINOMEscan

LOK = molecular target: T17, LOK (Homo sapiens, UniProt O94804); assay: KINOMEScan; assay type: binding; set-up: dose or concentration left out as unconfirmed
T17 construct: purchased DiscoverX KINOMEscan

MARK4 = molecular target: T18, MARK4 (Homo sapiens, UniProt Q96L34); assay: KINOMEScan; assay type: binding; set-up: dose or concentration left out as unconfirmed
T18 construct: purchased DiscoverX KINOMEscan
T18 sequence (Q96L34 whole entry): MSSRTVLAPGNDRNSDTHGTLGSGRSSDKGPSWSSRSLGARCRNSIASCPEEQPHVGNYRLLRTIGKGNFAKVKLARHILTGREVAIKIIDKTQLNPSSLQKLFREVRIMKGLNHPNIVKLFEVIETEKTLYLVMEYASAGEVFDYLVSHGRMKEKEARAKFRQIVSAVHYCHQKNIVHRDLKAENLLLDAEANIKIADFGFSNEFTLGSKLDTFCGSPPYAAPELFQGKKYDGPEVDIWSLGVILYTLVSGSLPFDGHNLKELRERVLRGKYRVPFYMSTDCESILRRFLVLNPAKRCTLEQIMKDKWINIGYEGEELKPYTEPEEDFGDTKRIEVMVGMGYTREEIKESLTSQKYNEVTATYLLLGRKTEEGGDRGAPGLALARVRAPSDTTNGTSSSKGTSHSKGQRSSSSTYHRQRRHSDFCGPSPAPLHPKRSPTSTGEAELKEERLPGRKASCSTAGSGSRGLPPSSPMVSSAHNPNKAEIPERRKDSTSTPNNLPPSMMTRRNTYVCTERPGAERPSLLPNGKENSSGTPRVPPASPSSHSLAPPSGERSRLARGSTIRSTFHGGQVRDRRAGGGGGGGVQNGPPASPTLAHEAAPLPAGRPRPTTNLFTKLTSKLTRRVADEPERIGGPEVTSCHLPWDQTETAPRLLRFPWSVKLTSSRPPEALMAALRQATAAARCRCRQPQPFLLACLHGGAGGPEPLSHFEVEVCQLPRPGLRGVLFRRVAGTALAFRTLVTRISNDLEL

MET(Y1235D) = molecular target: T19, MET(Y1235D) (Homo sapiens, UniProt P08581, Y1235D); assay: KINOMEScan; assay type: binding; set-up: dose or concentration left out as unconfirmed
T19 construct: purchased DiscoverX KINOMEscan
T19 sequence (P08581 25-1390 Y1235D): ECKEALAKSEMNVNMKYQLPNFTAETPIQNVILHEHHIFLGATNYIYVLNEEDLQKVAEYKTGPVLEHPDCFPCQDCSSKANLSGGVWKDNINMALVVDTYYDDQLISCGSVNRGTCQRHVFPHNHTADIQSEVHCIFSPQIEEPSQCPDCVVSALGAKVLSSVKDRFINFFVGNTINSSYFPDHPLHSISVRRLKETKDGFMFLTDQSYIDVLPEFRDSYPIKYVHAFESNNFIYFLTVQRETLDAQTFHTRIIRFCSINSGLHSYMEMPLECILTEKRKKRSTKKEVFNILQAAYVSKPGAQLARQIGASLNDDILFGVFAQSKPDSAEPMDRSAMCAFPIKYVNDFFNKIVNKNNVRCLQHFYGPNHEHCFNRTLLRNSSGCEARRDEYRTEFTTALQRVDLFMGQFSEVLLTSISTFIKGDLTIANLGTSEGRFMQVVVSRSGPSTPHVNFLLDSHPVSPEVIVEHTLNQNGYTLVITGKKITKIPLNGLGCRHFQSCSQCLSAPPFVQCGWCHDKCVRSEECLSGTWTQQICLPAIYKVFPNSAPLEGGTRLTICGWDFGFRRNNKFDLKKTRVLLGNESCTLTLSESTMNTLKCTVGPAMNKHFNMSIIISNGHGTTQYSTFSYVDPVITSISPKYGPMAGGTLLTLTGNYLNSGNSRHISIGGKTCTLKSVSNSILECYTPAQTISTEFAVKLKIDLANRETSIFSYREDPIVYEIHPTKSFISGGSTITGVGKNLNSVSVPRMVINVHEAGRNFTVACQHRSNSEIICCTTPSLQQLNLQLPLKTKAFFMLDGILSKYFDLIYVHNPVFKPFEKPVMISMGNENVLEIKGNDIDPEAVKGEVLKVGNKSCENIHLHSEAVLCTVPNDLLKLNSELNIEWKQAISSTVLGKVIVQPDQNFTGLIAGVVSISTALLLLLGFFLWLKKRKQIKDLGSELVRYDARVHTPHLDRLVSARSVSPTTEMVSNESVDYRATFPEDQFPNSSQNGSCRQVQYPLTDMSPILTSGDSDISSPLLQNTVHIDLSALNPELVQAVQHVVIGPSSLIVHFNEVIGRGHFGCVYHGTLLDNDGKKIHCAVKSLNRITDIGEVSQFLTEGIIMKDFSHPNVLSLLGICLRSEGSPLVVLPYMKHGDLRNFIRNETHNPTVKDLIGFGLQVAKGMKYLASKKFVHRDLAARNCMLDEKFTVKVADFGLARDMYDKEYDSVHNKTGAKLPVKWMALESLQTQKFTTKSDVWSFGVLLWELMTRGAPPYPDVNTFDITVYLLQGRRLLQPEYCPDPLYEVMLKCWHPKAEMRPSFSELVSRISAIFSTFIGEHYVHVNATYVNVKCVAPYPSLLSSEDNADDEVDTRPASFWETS

PFTK1 = molecular target: T20, PFTK1 (Homo sapiens, UniProt O94921); assay: KINOMEScan; assay type: binding; set-up: dose or concentration left out as unconfirmed
T20 construct: purchased DiscoverX KINOMEscan

PIKFYVE = molecular target: T21, PIKFYVE (Homo sapiens, UniProt Q9Y2I7); assay: KINOMEScan; assay type: binding; set-up: dose or concentration left out as unconfirmed
T21 construct: purchased DiscoverX KINOMEscan

PIP5K1C = molecular target: T22, PIP5K1C (Homo sapiens, UniProt O60331); assay: KINOMEScan; assay type: binding; set-up: dose or concentration left out as unconfirmed
T22 construct: purchased DiscoverX KINOMEscan
T22 sequence (O60331 whole entry): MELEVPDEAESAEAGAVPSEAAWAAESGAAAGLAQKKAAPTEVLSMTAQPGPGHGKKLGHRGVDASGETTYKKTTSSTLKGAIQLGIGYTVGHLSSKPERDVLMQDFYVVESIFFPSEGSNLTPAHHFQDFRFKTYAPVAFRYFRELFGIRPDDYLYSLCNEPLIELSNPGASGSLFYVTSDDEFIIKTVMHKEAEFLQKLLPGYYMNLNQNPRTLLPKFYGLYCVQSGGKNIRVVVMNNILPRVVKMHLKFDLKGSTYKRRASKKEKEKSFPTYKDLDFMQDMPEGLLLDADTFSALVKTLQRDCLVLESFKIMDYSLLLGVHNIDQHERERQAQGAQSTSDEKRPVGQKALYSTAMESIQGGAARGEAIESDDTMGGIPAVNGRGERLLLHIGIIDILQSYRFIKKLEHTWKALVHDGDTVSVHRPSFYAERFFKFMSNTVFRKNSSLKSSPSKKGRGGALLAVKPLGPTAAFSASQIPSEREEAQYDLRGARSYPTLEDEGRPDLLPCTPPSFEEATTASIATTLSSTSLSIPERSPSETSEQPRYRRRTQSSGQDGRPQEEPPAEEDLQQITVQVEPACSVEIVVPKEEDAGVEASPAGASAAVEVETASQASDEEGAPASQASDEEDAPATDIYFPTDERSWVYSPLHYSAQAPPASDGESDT

PLK2 = molecular target: T23, PLK2 (Homo sapiens, UniProt Q9NYY3); assay: KINOMEScan; assay type: binding; set-up: dose or concentration left out as unconfirmed
T23 construct: purchased DiscoverX KINOMEscan

SNARK = molecular target: T24, SNARK (Homo sapiens, UniProt Q9H093); assay: KINOMEScan; assay type: binding; set-up: dose or concentration left out as unconfirmed
T24 construct: purchased DiscoverX KINOMEscan

ULK1 = molecular target: T25, ULK1 (Homo sapiens, UniProt O75385); assay: KINOMEScan; assay type: binding; set-up: dose or concentration left out as unconfirmed
T25 construct: purchased DiscoverX KINOMEscan

KIT T670I/V559D = KIT T670I/V559D (Homo sapiens, UniProt P10721, T670I/V559D); assay: KIT auto-phosphorylation in transformed BaF3 cells
Sequence of KIT T670I/V559D (P10721 26-976 V559D/T670I): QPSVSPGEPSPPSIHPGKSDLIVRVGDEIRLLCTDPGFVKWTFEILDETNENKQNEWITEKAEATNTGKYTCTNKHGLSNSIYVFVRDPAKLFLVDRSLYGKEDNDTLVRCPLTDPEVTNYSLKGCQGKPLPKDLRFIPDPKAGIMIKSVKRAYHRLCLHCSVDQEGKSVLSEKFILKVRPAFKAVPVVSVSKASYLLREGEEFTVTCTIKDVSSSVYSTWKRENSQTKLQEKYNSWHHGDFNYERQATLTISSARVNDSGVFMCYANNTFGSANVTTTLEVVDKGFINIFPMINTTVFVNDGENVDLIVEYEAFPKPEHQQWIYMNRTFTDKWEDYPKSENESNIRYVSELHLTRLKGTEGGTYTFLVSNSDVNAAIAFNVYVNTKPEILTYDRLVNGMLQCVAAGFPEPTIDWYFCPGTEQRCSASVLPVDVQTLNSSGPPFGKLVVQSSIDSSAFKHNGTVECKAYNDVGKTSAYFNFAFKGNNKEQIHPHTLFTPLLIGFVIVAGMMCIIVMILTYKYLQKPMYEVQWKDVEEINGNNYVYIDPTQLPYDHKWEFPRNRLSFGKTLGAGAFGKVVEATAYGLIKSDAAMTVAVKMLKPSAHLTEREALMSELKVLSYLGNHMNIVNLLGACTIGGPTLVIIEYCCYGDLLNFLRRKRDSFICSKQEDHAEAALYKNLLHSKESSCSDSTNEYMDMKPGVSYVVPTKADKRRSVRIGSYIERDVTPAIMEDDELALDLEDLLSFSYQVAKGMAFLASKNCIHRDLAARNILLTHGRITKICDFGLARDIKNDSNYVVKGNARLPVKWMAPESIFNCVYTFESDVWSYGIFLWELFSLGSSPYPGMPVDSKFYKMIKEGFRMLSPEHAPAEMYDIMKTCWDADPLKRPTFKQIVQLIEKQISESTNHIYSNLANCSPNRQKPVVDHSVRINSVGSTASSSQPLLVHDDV

KIT V654A = KIT V654A (Homo sapiens, UniProt P10721, V654A); assay: KIT auto-phosphorylation in transformed BaF3 cells; details: 2h
Sequence of KIT V654A (P10721 546-976 V654A): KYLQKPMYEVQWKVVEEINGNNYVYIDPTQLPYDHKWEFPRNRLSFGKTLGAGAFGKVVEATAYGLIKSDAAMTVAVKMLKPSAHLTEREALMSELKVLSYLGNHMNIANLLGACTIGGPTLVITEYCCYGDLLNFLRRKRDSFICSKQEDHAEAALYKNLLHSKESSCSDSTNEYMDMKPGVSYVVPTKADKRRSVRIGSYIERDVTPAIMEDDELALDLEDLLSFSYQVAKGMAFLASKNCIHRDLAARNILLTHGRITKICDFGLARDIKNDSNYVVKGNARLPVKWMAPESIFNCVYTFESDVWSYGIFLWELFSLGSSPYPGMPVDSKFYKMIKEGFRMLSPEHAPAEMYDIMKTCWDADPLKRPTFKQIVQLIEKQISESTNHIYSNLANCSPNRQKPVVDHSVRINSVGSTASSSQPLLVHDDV

In the case of `COc1cc(C(=O)NCC(=O)Nc2ccc3c(/C=C/c4ccccn4)n[nH]c3c2)cc(OC)c1OC` [CHMFL-KIT-031], the GI50 [1] is reported as 2400 nM, the “S score (1)” value (468 kinases/mutants) is reported as 0.01 and the KINOMEScan profiling value (BMPR2) is reported as 100. The KINOMEScan profiling value (CDK2) was 100, the KINOMEScan profiling value (CDK3) was 100 and the KINOMEScan profiling value (CSK) was 87. The KINOMEScan profiling value (CSNK1G1) was 100, the KINOMEScan profiling value (DCAMKL1) was 100 and the KINOMEScan profiling value (EGFR(G719S)) was 95. The KINOMEScan profiling value [2] was 100, the KINOMEScan profiling value [3] was 100 and the KINOMEScan profiling value (EGFR(L858R)) was 100. For the same compound, the KINOMEScan profiling value (EGFR(L858R,T790M)) was 75, the KINOMEScan profiling value (EGFR(S752-I759del)) was 92 and the KINOMEScan profiling value (EPHB2) was 87. It also gave a KINOMEScan profiling value (FLT3(ITD,F691L)) of 91, a KINOMEScan profiling value [4] of 87 and a KINOMEScan profiling value [5] of 100. For the same compound, the KINOMEScan profiling value (LATS2) was 100, the KINOMEScan profiling value (LOK) was 96 and the KINOMEScan profiling value (MARK4) was 96. For the same compound, the KINOMEScan profiling value (MET(Y1235D)) was 100, the KINOMEScan profiling value (PFTK1) was 100 and the KINOMEScan profiling value (PIKFYVE) was 87. It also gave a KINOMEScan profiling value (PIP5K1C) of 71, a KINOMEScan profiling value (PLK2) of 100 and a KINOMEScan profiling value (SNARK) of 100. For the same compound, the KINOMEScan profiling value (ULK1) was 92, the EC50 (KIT T670I/V559D) was over 10 µM and the EC50 (KIT T670I/V559D; read-out: EC50 pY719 auto-phosphorylation, KIT T670I/V559D transformed BaF3 cells, 2h) was over 10 µM. For the same compound, the EC50 (KIT T670I/V559D; read-out: EC50 pY823 auto-phosphorylation, KIT T670I/V559D transformed BaF3 cells, 2h) was over 10 µM, the EC50 (KIT V654A; EC50 pY703 auto-phosphorylation) was 508 nM and the EC50 (KIT V654A; EC50 pY719 auto-phosphorylation) was 2200 nM. It also gave an EC50 (KIT V654A; EC50 pY823 auto-phosphorylation) of 4600 nM.
